Reference: article PMC9502539, “1,2,3-Triazole-Benzofused Molecular Conjugates as Potential Antiviral Agents against SARS-CoV-2 Virus Variants” (Life, 2022)
Values after ≈ are worked out from the molar mass of the structure shown.

Legend:
[1] = target: T1, SARS-CoV-2 spike protein (Severe acute respiratory syndrome coronavirus 2, UniProt P0DTC2); assay: biochemical; type: binding; conditions: read-out: remaining activity % of SARS-CoV-2 spike proteins; for remaining activity at 0.1 µM: tested concentration 100 nM; for remaining activity at 0.2 µM: tested concentration 200 nM; for remaining activity at 0.5 µM: tested concentration 500 nM; for remaining activity at 0.75 µM: tested concentration 750 nM; for remaining activity at 1 µM: tested concentration 1000 nM
T1 construct: purchased Biosource, Muskego, WI, USA

[2] = system: SARS-CoV-2; assay: microbe, parasite or virus in culture; type: cell-based; conditions: for EC50: Severe acute respiratory syndrome coronavirus 2, Vero C1008
[3] = in vitro; conditions: African green monkey
[4] = system: IL-1β; assay: Proinflammatory cytokine production (ELISA) in infected cells; type: cell-based; conditions: infected cells treated with compound vs infected untreated
[5] = system: IL-6; assay: as above; type: cell-based; conditions: infected cells treated with compound vs infected untreated
[6] = system: SARS-CoV-2; conditions: cited from earlier work

Row | Structure (SMILES) | remaining activity at 0.1 µM [1] [%] | remaining activity at 0.2 µM [1] [%] | remaining activity at 0.5 µM [1] [%] | remaining activity at 0.75 µM [1] [%] | remaining activity at 1 µM [1] [%] | Selectivity Index (SI) [2] | EC50 [2] [µg/mL] | CC50 [3] [µg/mL] | IL-1β protein expression level [4] | IL-6 protein expression level [5] | antiviral activity against SARS-CoV-2 [6]
1 | O=C(Cn1cc(CSc2nc3ccccc3n2Cc2cn(CC(=O)NNC(=S)Nc3ccc(F)cc3)nn2)nn1)NNC(=S)Nc1ccc(F)cc1 [compound 5] | 83.8 | 70.2 | 45.8 | 32 | 26 | 8.82 | 231 (≈ 303 µM) | 2040 (≈ 2670 µM) |  |  | 
2 | Cc1ccc2nc(NC(=O)Cn3cc(CN4C(=O)C(=O)c5ccccc54)nn3)sc2c1 [compound 12] | 95.9 | 92.5 | 82 | 82 | 70 | 0.87 | 382 (≈ 882 µM) | 332 (≈ 767 µM) |  |  | 
3 | O=C(Cn1cc(CSc2nc3ccccc3n2Cc2cn(CC(=O)NNC(=S)Nc3ccccc3)nn2)nn1)NNC(=S)Nc1ccccc1 [compound 4] | 74.6 | 46 | 21.9 | 20 | 18 | 10.90 | 174 (≈ 240 µM) | 1900 (≈ 2610 µM) |  |  | 
4 | S=c1[nH]nc(Cn2cc(CSc3nc4ccccc4n3Cc3cn(Cc4n[nH]c(=S)n4-c4ccccc4)nn3)nn2)n1-c1ccccc1 [compound 6] | 79.9 | 65.4 | 38.2 | 27 | 20 | 6.87 | 155 (≈ 224 µM) | 1070 (≈ 1540 µM) |  |  | 
5 | Cc1onc(NS(=O)(=O)c2ccc(-n3cc(CSc4nc5ccccc5n4Cc4cn(-c5ccc(S(=O)(=O)Nc6noc(C)c6C)cc5)nn4)nn3)cc2)c1C [compound 9] | 67.1 | 32.7 | 11.4 | 12 | 5 |  | 80.4 (≈ 98.9 µM) | 1030 (≈ 1260 µM) | noticeably reduced | noticeably reduced | 
6 | COc1ccc(-n2cc(CCOc3cc(C(F)(F)F)nc4ccc(F)cc34)nn2)cc1 [12c, 6-fluoro-4-(2-(1-(4-methoxyphenyl)-1H-1,2,3-triazol-4-yl)ethoxy)-2-(trifluoromethyl)quinoline] |  |  |  |  |  |  |  |  |  |  | high antiviral activity
7 | CC(C)(O/N=C(\C(=O)N[C@@H]1C(=O)N2C(C(=O)[O-])=C(C[n+]3ccccc3)CS[C@H]12)c1csc(N)n1)C(=O)O [Ceftazidime, ceftazidime, reference compound] | 99 | 79 | 59 | 55.1 | 45.2 | 12.29 | 85.1 (≈ 156 µM) | 1050 (≈ 1910 µM) |  |  | 
8 | Fc1ccc2nc(C(F)(F)F)cc(OCc3cn(-c4ccccc4Cl)nn3)c2c1 [10 g, 4-((1-(2-chlorophenyl)-1H-1,2,3-triazol-4-yl)methoxy)-6-fluoro-2-(trifluoromethyl)quinoline] |  |  |  |  |  |  |  |  |  |  | high antiviral activity
9 | Nn1c(Cn2cc(CSc3nc4ccccc4n3Cc3cn(Cc4n[nH]c(=S)n4N)nn3)nn2)n[nH]c1=S [compound 7] | 86.1 | 77.2 | 58.6 | 44 | 40 | 5.0 | 306 (≈ 538 µM) | 1530 (≈ 2690 µM) |  |  | 
